In patent publication US20260184663A1, “INDENE COMPOUNDS, PHARMACEUTICAL COMPOSITIONS THEREOF, AND THEIR THERAPEUTIC APPLICATIONS” (NucMito Pharmaceuticals co. Ltd., priority 2022, published 2026):

Columns and labels:
Format in all cases: cell-based
HeLa (cervical cancer) = experiment: Antiproliferative activity (CCK-8 cell viability), HeLa; conditions: Homo sapiens, 72 h; for inhibition at 3.3 µM: Compound concentration: 3.3 μM; for inhibition at 3.3 µM / inhibition at 10 µM: read-out: Antiproliferative activity in cancerous cells, HELA (inhibition of cell growth); for inhibition at 10 µM: Compound concentration: 10 μM; for inhibition at 30 µM: Compound concentration: 30 μM, read-out: Antiproliferative activity in cancerous cells, HELA
Method in brief: (§1)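 Cells were seeded at 2,000-5,000/well (HeLa in MEM, HepG2 and SW480 in DMEM, A549 in F-12K, all with 10% FBS) and treated with compound at 3.3, 10 or 30 μM for 72 h at 37° C. CCK-8 was added for 4 h, absorbance was read at 450 nm, and viability was expressed relative to DMSO-treated wells.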

[1] = system: alpha-smooth muscle actin (α-SMA); experiment: Inhibition of TGF-β induced expression of alpha-smooth muscle actin (α-SMA) in CFSC cells (western blot); conditions: compound at 10 μM, TGF-β (10 ng/mL), 24 hours, band intensity vs TGF-β only
Method in brief: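 Values are percent reduction of α-SMA band intensity relative to cells given TGF-β alone, quantified by Western blot densitometry with β-actin probed. Compound was applied at 10 μM alongside 10 ng/mL TGF-β to serum-free CFSC cultures for 24 h at 37 °C.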

[2] = system: A431 (epidermoid carcinoma); experiment: Antiproliferative activity (CCK-8 cell viability), A431; conditions: Homo sapiens, 72 h; for inhibition at 3.3 µM: A-431, Compound concentration: 3.3 μM; for inhibition at 3.3 µM / inhibition at 10 µM: read-out: Antiproliferative activity in cancerous cells, A431 (inhibition of cell growth); for inhibition at 10 µM: A-431, Compound concentration: 10 μM
Method in brief: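 Cell viability of compound-treated A431 cells was measured with a Cell Counting Kit-8. Each well received 10 μL of CCK-8 after 72 h of compound exposure, followed by 4 h incubation at 37° C. and a 450 nm plate-reader measurement. Percent viability was calculated relative to DMSO controls across replicates.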

[3] = system: MDA-MB-231 (breast cancer); experiment: Antiproliferative activity (CCK-8 cell viability), MDA-MB-231; conditions: Homo sapiens, 72 h, read-out: Antiproliferative activity in cancerous cells, MDA-MB-231 (inhibition of cell growth); for inhibition at 3.3 µM: Compound concentration: 3.3 μM; for inhibition at 10 µM: Compound concentration: 10 μM
Method in brief: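 In this CCK-8 viability assay, MDA-MB-231 cells maintained in Dulbecco's modified Eagle's medium containing 10% fetal bovine serum were placed in 96-well plates (2,000-5,000 cells/well) and treated with compound for 72 h at 37° C. A 4 h incubation with 10 μL CCK-8 followed, plates were read at 450 nm, and viability was expressed against DMSO vehicle wells across replicates.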

[4] = system: B16F10 (malignant melanoma); experiment: Antiproliferative activity (CCK-8 cell viability), B16F10; conditions: Mus musculus, 72 h; for inhibition at 3.3 µM: B16-F10, Compound concentration: 3.3 μM; for inhibition at 3.3 µM / inhibition at 10 µM: read-out: Antiproliferative activity in cancerous cells, B16F10 (inhibition of cell growth); for inhibition at 10 µM: B16-F10, Compound concentration: 10 μM
Method in brief: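 Attached B16F10 cells in 96-well plates were incubated with compound at 37° C for 72 h, followed by 10 μL CCK-8 reagent per well and a further 4 h incubation. A multi-well plate reader measured absorbance at 450 nm. Percent viability across replicates was calculated against DMSO vehicle-treated cells.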

[5] = system: A549 (lung adenocarcinoma); experiment: Antiproliferative activity (CCK-8 cell viability), A549; conditions: Homo sapiens, 72 h; for inhibition at 3.3 µM: Compound concentration: 3.3 μM; for inhibition at 3.3 µM / inhibition at 10 µM: read-out: Antiproliferative activity in cancerous cells, A549 (inhibition of cell growth); for inhibition at 10 µM: Compound concentration: 10 μM; for inhibition at 30 µM: Compound concentration: 30 μM, read-out: Antiproliferative activity in cancerous cells, A549
Method in brief: as §1

SW480 (colon cancer) = experiment: Antiproliferative activity (CCK-8 cell viability), SW480; conditions: Homo sapiens, 72 h, read-out: Antiproliferative activity in cancerous cells, SW480 (inhibition of cell growth); for inhibition at 3.3 µM: Compound concentration: 3.3 μM; for inhibition at 10 µM: Compound concentration: 10 μM
Method in brief: as §1

HepG2 (liver cancer) = experiment: Antiproliferative activity (CCK-8 cell viability), HepG2; conditions: Homo sapiens, 72 h; for inhibition at 3.3 µM: Compound concentration: 3.3 μM; for inhibition at 3.3 µM / inhibition at 10 µM: read-out: Antiproliferative activity in cancerous cells, HepG2 (inhibition of cell growth); for inhibition at 10 µM: Compound concentration: 10 μM
Method in brief: as §1

Structure (SMILES) | inhibition at 3.3 µM (HeLa (cervical cancer)) | inhibition at 10 µM (HeLa (cervical cancer)) | inhibition at 10 µM [1] | inhibition at 3.3 µM [2] | inhibition at 10 µM [2] | inhibition at 3.3 µM [3] | inhibition at 10 µM [3] | inhibition at 3.3 µM [4] | inhibition at 10 µM [4] | inhibition at 3.3 µM [5] | inhibition at 10 µM [5] | inhibition at 3.3 µM (SW480 (colon cancer)) | inhibition at 10 µM (SW480 (colon cancer)) | inhibition at 3.3 µM (HepG2 (liver cancer)) | inhibition at 10 µM (HepG2 (liver cancer)) | inhibition at 30 µM ([2]; A-431, Compound concentration: 30 μM, read-out: Antiproliferative activity in cancerous cells, A431) | inhibition at 30 µM ([4]; B16-F10, Compound concentration: 30 μM, read-out: Antiproliferative activity in cancerous cells, B16F10) | inhibition at 30 µM (HeLa (cervical cancer)) | inhibition at 30 µM [5] | inhibition at 30 µM (HepG2 (liver cancer); Compound concentration: 30 μM, read-out: Antiproliferative activity in cancerous cells, HepG2)
O=C(O)CC1=C(Cc2ccc(Oc3ccc(F)cc3)cc2)/C(=C/c2ccc(C(F)(F)F)cc2)c2ccc(F)cc21 [A108, (Z)-2-(5-Fluoro-2-(4-(4-fluorophenoxy)benzyl)-1-(4-(trifluoromethyl)-benzylidene)-1H-inden-3-yl)acetic acid] | < 30% | ≥ 50% | > 80% | ≥ 50% | ≥ 50% | ≥ 50% | ≥ 50% | ≥ 50% | ≥ 50% | ≥ 50% | ≥ 50% | < 30% | ≥ 50% | < 30% | < 30% | – | – | – | – | –
O=C(O)CC1=C(Cc2ccc(Oc3ccc(F)cc3)cc2)/C(=C/c2cccc(C(F)(F)F)c2)c2ccc(F)cc21 [A109, (Z)-2-(5-Fluoro-2-(4-(4-fluorophenoxy)benzyl)-1-(3-(trifluoromethyl)-benzylidene)-1H-inden-3-yl)acetic acid] | < 30% | ≥ 50% | > 80% | 30 to 50% | ≥ 50% | ≥ 50% | ≥ 50% | < 30% | ≥ 50% | ≥ 50% | ≥ 50% | < 30% | < 30% | < 30% | < 30% | – | – | – | – | –
COc1ccc(/C=C2/C(Cc3ccc(Oc4ccc(F)cc4)cc3)=C(CC(=O)O)c3cc(F)ccc32)cc1 [A110, (Z)-2-(5-Fluoro-2-(4-(4-fluorophenoxy)benzyl)-1-(4-methoxybenzylidene)-1H-inden-3-yl)acetic acid] | < 30% | ≥ 50% | > 80% | < 30% | ≥ 50% | ≥ 50% | ≥ 50% | < 30% | ≥ 50% | < 30% | ≥ 50% | < 30% | ≥ 50% | < 30% | < 30% | – | – | – | – | –
O=C(O)CC1=C(Cc2ccc(Oc3ccc(F)cc3)cc2)/C(=C/c2ccc(CN3CCOCC3)cc2)c2ccc(F)cc21 [A113, (Z)-2-(5-Fluoro-2-(4-(4-fluorophenoxy)benzyl)-1-(4-(morpholinomethyl)-benzylidene)-1H-inden-3-yl)acetic acid] | ≥ 50% | ≥ 50% | > 80% | < 30% | < 30% | ≥ 50% | ≥ 50% | < 30% | < 30% | 30 to 50% | 30 to 50% | ≥ 50% | ≥ 50% | ≥ 50% | ≥ 50% | < 30% | < 30% | – | – | –
CC1=C(CCO)c2cc(F)ccc2/C1=C\c1ccc(Oc2ccc(F)cc2)cc1 [A201, (Z)-2-(5-Fluoro-1-(4-(4-fluorophenoxy)benzylidene)-2-methyl-1H-inden-3-yl)-ethan-1-ol] | 30 to 50% | ≥ 50% | < 30% | ≥ 50% | ≥ 50% | 30 to 50% | ≥ 50% | < 30% | ≥ 50% | 30 to 50% | ≥ 50% | ≥ 50% | ≥ 50% | ≥ 50% | ≥ 50% | – | – | – | – | –
CC1=C(CC(=O)O)c2ccc(F)cc2/C1=C\c1ccc(COc2ccccc2)cc1 [B1, (Z)-2-(6-Fluoro-2-methyl-1-(4-(phenoxymethyl)benzylidene)-1H-inden-3-yl)-acetic acid] | < 30% | < 30% | < 30% | 30 to 50% | 30 to 50% | < 30% | ≥ 50% | ≥ 50% | ≥ 50% | < 30% | < 30% | ≥ 50% | ≥ 50% | < 30% | ≥ 50% | – | – | 30 to 50% | 30 to 50% | –
CC1=C(CC(=O)O)c2cc(F)ccc2/C1=C\c1ccc(COc2ccc(C(F)(F)F)cc2)cc1 [B2, (Z)-2-(5-Fluoro-2-methyl-1-(4-((4-(trifluoromethyl)phenoxy)methyl)-benzylidene)-1H-inden-3-yl)acetic acid] | < 30% | < 30% | > 80% | 30 to 50% | ≥ 50% | 30 to 50% | ≥ 50% | ≥ 50% | ≥ 50% | ≥ 50% | ≥ 50% | ≥ 50% | ≥ 50% | 30 to 50% | ≥ 50% | – | – | 30 to 50% | – | –
O=C(O)CC1=C/C(=C/c2ccc(COc3ccccc3)cc2)c2ccc(F)cc21 [B3, (Z)-2-(5-Fluoro-1-(4-(phenoxymethyl)benzylidene)-1H-inden-3-yl)acetic acid] | < 30% | < 30% | > 80% | < 30% | 30 to 50% | ≥ 50% | ≥ 50% | ≥ 50% | ≥ 50% | 30 to 50% | ≥ 50% | < 30% | 30 to 50% | 30 to 50% | 30 to 50% | – | – | < 30% | 30 to 50% | < 30%
